Square brackets hold non-standard residues; d marks the D form. Ends that are not written are not given here.
Key:
Format in all cases: biochemical
[1] = system: FVIII deficient human plasma; test: Thrombin generation assay (TGA) in FVIII-deficient plasma; settings: for TGA activity in the presence of FVIII: 0.1 U/mL FVIII, compound 7 100-6.3 uM, compounds 8 and 9 50-3.1 uM
FIXa = FIXa (Homo sapiens, UniProt P00740); test: FXa generation assay with human FIXa; parameters: purchased Haematologic Technologies; settings: FXa generation assay, 10 nM hFIXa, 100 nM hFX; class symbols
From the text: FXa generation was utilized to assess the capability of the compounds of the present disclosure to enhance the catalytic activities of FIXa and/or FVIIa.
To measure the catalytic activity of FIXa, FIXa was mixed with FX and phospholipids in the presence of calcium chloride. Under these conditions FIXa cleaves the zymogen FX into the active form FXa.
The generation of FXa is monitored by the change in absorbance of the reaction at 405 nm due to the presence of a cleavable FXa chromogenic substrate (S-2765; Z-D-Arg-Gly-Arg-pNA; cleavage of p-nitroaniline). […] The kit contains all the FXa generation components, however, FIXa and FX obtained from this kit are from a bovine origin and were replaced with purified human FIXa or human FVIIa and human FX (Haematologic Technologies).
The assay was also modified to enhance the screening throughput. Instead of the sequential addition, all the assay components were mixed and added simultaneously to the purified compound to be assayed. A 125 μl reaction mix of the assay components was prepared in the buffer supplied by the manufacturer (50 mM Tris 7.3, and 1% BSA). […] The reaction mix (125 ul) was then added to 25 ul of compound diluted in water in a Costar-3651 flat bottom 96-well plate. […] The absorbance was monitored over a period of 1 hour at 405 nm using a plate reader (Synergy 2, Biotek).
The 405 nm absorbance data were then analyzed to obtain the slope of the first derivative which reflects the rate of change in absorbance. The first derivative slope data for each compound concentration were plotted against the compound concentration and fitted to a four-parameter equation to obtain the EC50 and Vmax values for each compound tested.

[2] = system: FVIII deficient human plasma; test: Rotational thromboelastometry (ROTEM) in FVIII-deficient human plasma; settings: human HemA plasma (HRF)
Method: Compounds of the present disclosure were tested by rotational thromboelastometry to evaluate coagulation parameters such as clotting time (CT), α-angle, clot formation time (CFT), maximum clot firmness (MCF). Briefly, lyophilized and citrated FVIII deficient human plasma (Siemens) was reconstituted with 1 mL of distilled water, allowed to stand for 20 min at RT and mixed well before use. Alternatively, an aliquot of citrated (non-lyophilized) FVIII deficient human plasma (HRF, George King, Precision Biologics, or real-time donors) was thawed for 10 min in a 37° C. water bath and when needed centrifuged at 2800 g for 5 min at 25° C. FVIII deficient plasma was spiked with lyophilized platelets (Helena Laboratories, final concentration 0.5×10^8 cells/ml) and compounds, FVIII, or both compound and FVIII. Dilutions of compounds of the present disclosure and controls, such as FVIII, were prepared in PBS (—Ca, —Mg). Next, 300 μl of the spiked plasma was transferred to a ROTEM cup already containing 20 μl of StarTEM (concentrated calcium chloride solution) and 20 μl of lipidated TF (American Diagnostica, final concentration 10 fM) or Kaolin (Sigma-Aldrich, final concentration 0.4 μg/ml) and recording was initiated. The cups were maintained at 37° C. during the testing.

[3] = Precision Biologics FVIII-deficient plasma (2), first Baseline (2) series, 2.5 μM
[4] = Precision Biologics FVIII-deficient plasma (2), first Baseline (2) series, 5 μM
[5] = Precision Biologics FVIII-deficient plasma (2), first Baseline (2) series, 10 μM
[6] = Precision Biologics FVIII-deficient plasma (2), second Baseline (2) series, 2.5 μM
[7] = Precision Biologics FVIII-deficient plasma (2), second Baseline (2) series, 5 μM
[8] = Precision Biologics FVIII-deficient plasma (2), second Baseline (2) series, 10 μM
[9] = Precision Biologics FVIII-deficient plasma (2), second Baseline (2) series, 20 μM

Chain of FIXa (P00740 47-191 limits assumed): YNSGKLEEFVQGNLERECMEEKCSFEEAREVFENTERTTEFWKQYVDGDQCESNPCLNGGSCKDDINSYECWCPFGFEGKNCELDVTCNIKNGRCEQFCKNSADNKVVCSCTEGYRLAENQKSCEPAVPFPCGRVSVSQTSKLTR
Chain of FIXa (P00740 227-461 limits assumed): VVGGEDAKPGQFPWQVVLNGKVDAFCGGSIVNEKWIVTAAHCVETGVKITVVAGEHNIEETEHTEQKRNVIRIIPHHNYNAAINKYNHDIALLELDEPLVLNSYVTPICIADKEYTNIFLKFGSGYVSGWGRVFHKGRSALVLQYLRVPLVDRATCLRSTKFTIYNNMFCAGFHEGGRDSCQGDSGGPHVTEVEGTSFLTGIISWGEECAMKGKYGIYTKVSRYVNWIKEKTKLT

| Substance | Thrombin Above Baseline (nM) [1, 3] | Thrombin Above Baseline (nM) [1, 4] | Thrombin Above Baseline (nM) [1, 5] | Vmax (FIXa) | further results |
| --- | --- | --- | --- | --- | --- |
| GWKPFLWDPRVLLSSGWYGRG [Compound 7, reference compound] |  |  |  |  | TGA activity in the presence of FVIII [1]: competes with FVIII |
| GWKPFLWDPRVLLSSGWYGRGGGGGWKPFLWDPRVLLSSGWYGRG [Compound 9, reference compound] |  |  |  |  | TGA activity in the presence of FVIII [1]: competes with FVIII |
| PRIRSVGPGSRSASGKLTCLASYCWLFWTGIA | ++ (11-20 nM (1) or 30-59 nM (2) (++)) | +++ (21-30 nM (1) or 60-90 nM (2) (+++)) | +++ (21-30 nM (1) or 60-90 nM (2) (+++)) | (++++) ((++++)>3) |  |
| PRIRTSGPGSRSASGKLTCLASYCWLFWTGIA | + (1-10 nM (1) or 1-29 nM (2) (+)) | ++ (11-20 nM (1) or 30-59 nM (2) (++)) | ++ (11-20 nM (1) or 30-59 nM (2) (++)) | (++++) ((++++)>3) |  |
| PRIRTVGPGSRSASGKSTCLASYCWLFWTGIA | + (1-10 nM (1) or 1-29 nM (2) (+)) | ++ (11-20 nM (1) or 30-59 nM (2) (++)) | +++ (21-30 nM (1) or 60-90 nM (2) (+++)) | (++++) ((++++)>3) | Thrombin Above Baseline (nM) [1, 6]: + (1-10 nM (1) or 1-29 nM (2) (+)); Thrombin Above Baseline (nM) [1, 7]: +++ (21-30 nM (1) or 60-90 nM (2) (+++)); Thrombin Above Baseline (nM) [1, 8]: ++++ (>30 nM (1) or >90 nM (2) (++++)); Thrombin Above Baseline (nM) [1, 9]: ++++ (>30 nM (1) or >90 nM (2) (++++)) |
| PRIRTVGPSSRSASGKLTCLASYCWLFWTGIA | + (1-10 nM (1) or 1-29 nM (2) (+)) | ++ (11-20 nM (1) or 30-59 nM (2) (++)) | ++ (11-20 nM (1) or 30-59 nM (2) (++)) | (++++) ((++++)>3) |  |
| PRIRTVGSGSRSASGKLTCLASYCWLFWTGIA | + (1-10 nM (1) or 1-29 nM (2) (+)) | + (1-10 nM (1) or 1-29 nM (2) (+)) | + (1-10 nM (1) or 1-29 nM (2) (+)) | (++++) ((++++)>3) |  |
| PRIRTVSPGSRSASGKLTCLASYCWLFWTGIA | ++ (11-20 nM (1) or 30-59 nM (2) (++)) | +++ (21-30 nM (1) or 60-90 nM (2) (+++)) | ++++ (>30 nM (1) or >90 nM (2) (++++)) | (++++) ((++++)>3) |  |
| PRIRTVSPGSRSASGKSTCLASYCWLFWTGIA |  |  |  | (++++) ((++++)>3) | Thrombin Above Baseline (nM) [1, 6]: ++ (11-20 nM (1) or 30-59 nM (2) (++)); Thrombin Above Baseline (nM) [1, 7]: +++ (21-30 nM (1) or 60-90 nM (2) (+++)); Thrombin Above Baseline (nM) [1, 8]: ++++ (>30 nM (1) or >90 nM (2) (++++)); Thrombin Above Baseline (nM) [1, 9]: ++++ (>30 nM (1) or >90 nM (2) (++++)) |
| PRISTVGPGSRSASGKLTCLASYCWLFWTGIA | + (1-10 nM (1) or 1-29 nM (2) (+)) | + (1-10 nM (1) or 1-29 nM (2) (+)) | + (1-10 nM (1) or 1-29 nM (2) (+)) | (++++) ((++++)>3) |  |
| PRIrTVGPGSrSASGKLTCLASYCWLFWTGIA (PRI[dR]TVGPGS[dR]SASGKLTCLASYCWLFWTGIA; not fully specified; printed as PRIrTVGPGSrSASGKLTCLASYCWLFWTGIA; cysteine pairing not given here) | ++ (11-20 nM (1) or 30-59 nM (2) (++)) | +++ (21-30 nM (1) or 60-90 nM (2) (+++)) | +++ (21-30 nM (1) or 60-90 nM (2) (+++)) |  | Thrombin Above Baseline (nM) ([1]; HRF FVIII-deficient plasma (1), 2.5 μM): ++ (11-20 nM (1) or 30-59 nM (2) (++)); Thrombin Above Baseline (nM) ([1]; HRF FVIII-deficient plasma (1), 2.5 μM, listed as PRIRTVGPGSRSASGKLTCLASYCWLFWTGIA): + (1-10 nM (1) or 1-29 nM (2) (+)); Thrombin Above Baseline (nM) ([1]; HRF FVIII-deficient plasma (1), 5 μM): +++ (21-30 nM (1) or 60-90 nM (2) (+++)); Thrombin Above Baseline (nM) ([1]; HRF FVIII-deficient plasma (1), 5 μM, listed as PRIRTVGPGSRSASGKLTCLASYCWLFWTGIA): ++ (11-20 nM (1) or 30-59 nM (2) (++)); Thrombin Above Baseline (nM) ([1]; HRF FVIII-deficient plasma (1), 10 μM): +++ (21-30 nM (1) or 60-90 nM (2) (+++)); Thrombin Above Baseline (nM) ([1]; HRF FVIII-deficient plasma (1), 20 μM): +++ (21-30 nM (1) or 60-90 nM (2) (+++)) |
| PRIrTVGPGSrSASGKLTCLASYCWLFWTGIA [Compound 23] |  |  |  | (++++) ((++++)>3) | Clotting time, sec (avg.) ([2]; 2.5 μM): 983 s; α-angle, degrees (avg.) ([2]; 2.5 μM): 13 degrees; Clotting time, sec (avg.) ([2]; 5 μM): 673 s; α-angle, degrees (avg.) ([2]; 5 μM): 22 degrees; Clotting time, sec (avg.) ([2]; 10 μM): 486 s; α-angle, degrees (avg.) ([2]; 10 μM): 32 degrees; Clotting time, sec (avg.) ([2]; 20 μM): 472 s; α-angle, degrees (avg.) ([2]; 20 μM): 39 degrees |
| PRSRTVGPGSRSASGKLTCLASYCWLFWTGIA | ++ (11-20 nM (1) or 30-59 nM (2) (++)) | +++ (21-30 nM (1) or 60-90 nM (2) (+++)) | +++ (21-30 nM (1) or 60-90 nM (2) (+++)) | (++++) ((++++)>3) |  |

— patent publication US9486507B2, “Pro-coagulant compounds and methods of use thereof” (priority 2011, dated 2016)
